Test results as given in patent US10913750B2, “Tubulin-binding compounds, compositions and uses related thereto” (The Regents of the University of California, priority 2015, dated 2021).

How the values were obtained:
M202 = experiment: CellTiter-Glo cell viability, M202; type: cell-based
Description: (§1) To determine if MI-181 had broad anti-cancer activity, we treated a diverse panel of cancer cell lines including cervical adenocarcinoma (HeLa), breast adenocarcinoma (MCF7), melanoma (M233), osteosarcoma (U205), acute lymphoblastic leukemia (CCRF-CEM), non-small cell lung carcinoma (NCI-H460), and breast adenocarcinoma (MCF7) with MI-181 and determined its cell viability IC50 (FIGS. 13A and 13B). […] Therefore, the efficacy of MI-181 was analyzed in a panel of melanoma cell lines with defined genetic backgrounds including BRAF^V600E and NRAS^Q61L mutations and varied sensitivities to Vemurafenib (BRAF inhibitor) and Trametinib (MEK inhibitor), which are currently used to treat BRAF^V600E melanomas^43,44 (FIG. 10c). […] As a general trend BRAF^V600E cell lines were slightly more sensitive than NRAS^Q61L cell lines and MI-181 was effective in Vemurafenib and Trametinib resistant cell lines (FIG. 10c and Table 3). Finally, we tested the ability of MI-181 to inhibit melanoma colony formation using the M233 and M308 cell lines (both resistant to Vemurafenib). Indeed, MI-181 was a potent inhibitor of colony formation (percentage colony formation for 10 nM MI-181=0.2±0.1 and 0.8±0.7; for 10 nM colchicine=0.1±0.06 and 1.5±0.5; and for 10 nM Vemurafenib=94±7 and 102±5) (FIG. 10d). Thus, MI-181 is a potent inhibitor of melanoma cell lines. […]

β-tubulin = experiment: Crystal structure of T2R-TTL tubulin complex soaked with ligand; type: binding, bovine; conditions: T2R-TTL crystal soaked 24 hours with 1 mM compound
Description: The crystal structure of tubulin bound to two ligands described here was obtained using an established system for tubulin crystal growth. […] Methods in Cell Biology 2010, 95:373-390.) Briefly, bovine αβ-tubulin, human RB3 or rat STMN4 stathmin-like domain, and chicken tubulin tyrosine ligase (TTL) reconstitute to form a stathmin-bound αβ-tubulin (T2R) T2R-TTL complex, which readily crystallizes. […]
The final resolution cutoffs described here were determined optimally from a subset of diffraction images that took into consideration the signal-to-noise ratio for reflection intensities and the random half-data set correlation coefficient, CC1/2 (Karplus P. A., Diederichs K. Linking crystallographic model and data quality. Science 2012, (New York, N.Y.) 336:1030-1033.) […]

M368 = experiment: CellTiter-Glo cell viability, M368; type: cell-based
Description: as §1

Cc1cc2nc(/C=C/c3cccnc3)sc2cc1C [MI-181] was tested, and the IC50 (M202) was 88.3 nM, the “binding to tubulin in crystal structure” value (β-tubulin) was “bound to β-tubulin” and the IC50 (M368) was 42.1 nM.
